What all share (format): functional
Assay [1] relates to Pyrenophora graminea. As to the kind of experiment: Fungicidal activity against Pyrenophora graminea IFO-7507 assessed as mycelial growth inhibition at 25 mg/L after 3 days. The following applies: IFO-7507, 72 h, read-out: GI.
Assay [2] relates to Microdochium nivale. In words: Fungicidal activity against Microdochium nivale IFO-7432 assessed as mycelial growth inhibition at 25 mg/L after 3 days. As to conditions: IFO-7432, 72 h, read-out: GI.
For assay [3], the system named is Cercospora beticola. As to the kind of experiment: Fungicidal activity against Cercospora beticola Be-2-6 assessed as mycelial growth inhibition at 25 mg/L after 7 days. The following applies: Be-2-6, 168 h, read-out: GI.
Assay [4] relates to Zymoseptoria tritici. In words: Fungicidal activity against Zymoseptoria tritici S3 assessed as mycelial growth inhibition at 25 mg/L after 14 days. As to conditions: S3, 336 h, read-out: GI.
For assay [5], the system named is Fusarium graminearum. As to the kind of experiment: Fungicidal activity against Fusarium graminearum H3 assessed as mycelial growth inhibition at 25 mg/L after 3 days. The following applies: H3, 72 h, read-out: GI.
Assay [6] relates to Gaeumannomyces graminis. In words: Fungicidal activity against Gaeumannomyces graminis MAFF305168 assessed as mycelial growth inhibition at 25 mg/L after 1 day. The following applies: MAFF305168, 24 h, read-out: GI.
Assay [7] relates to Alternaria alternata. In words: Fungicidal activity against Alternaria alternata APS-38 assessed as mycelial growth inhibition at 25 mg/L after 3 days. As to conditions: APS-38, 72 h, read-out: GI.
The test system of assay [8] is Rhizoctonia solani. In words: Fungicidal activity against Rhizoctonia solani ET0007 assessed as mycelial growth inhibition at 25 mg/L after 1 day. The following applies: ET0007, 24 h, read-out: GI.
In assay [9] the test system is Rhynchosporium secalis. As to the kind of experiment: Fungicidal activity against Rhynchosporium secalis IFO-5290 assessed as mycelial growth inhibition at 25 mg/L after 14 days. As to conditions: IFO-5290, 336 h, read-out: GI.

This note sets out measurements from ChEMBL document CHEMBL3044528, “Potential new fungicides: N-acyl-5-methyl-3(2H)-isoxazolone derivatives” (2012).

With `Cc1cc(=O)n(C(=O)CCC(F)(F)F)o1`, the inhibition of growth at 25 µg/mL in assay [1] was determined as 46%; in [2], 54%; in assay [3], 89%; in assay [4] it was 65%; in assay [5], 32%; in assay [6], 60%. The inhibition of growth at 25 µg/mL in assay [7] worked out at 61%; in assay [8], 57%; in assay [9], 98%.
As for `CSCCC(=O)n1oc(C)cc1=O`, the inhibition of growth at 25 µg/mL was 76% in assay [1]; 50% in [2]; 92% in [3]; 67% in assay [4]; 37% in assay [5]; 58% in assay [6]. Moreover, the figures for the inhibition of growth at 25 µg/mL in [7], in [8] and in assay [9] were 64%, 62% and 99%, respectively.
With `Cc1cc(=O)n(C(=O)Cc2ccccc2)o1`, the inhibition of growth at 25 µg/mL in [1] worked out at 71%; in assay [2], 51%; in [3], 84%; in assay [4], 83%; in [5], 32%; in assay [6] it was 66%. Besides, the values for the inhibition of growth at 25 µg/mL in [7], in [8] and in [9] were 67%, 5% and 99%, respectively.
Turning to `Cc1cc(=O)n(C(=O)C(C)c2ccccc2)o1` (configuration not stated), the inhibition of growth at 25 µg/mL was determined as 74% in [1]; 55% in assay [2]; 86% in assay [3]; 83% in [4]; 33% in assay [5]; 5% in assay [6]. Besides, the inhibition of growth at 25 µg/mL came out at 48% in assay [7], 20% in [8] and 99% in assay [9].
As to `Cc1cc(=O)n(C(=O)C(C)(C)Oc2ccc(Cl)cc2)o1`, the inhibition of growth at 25 µg/mL in [1] amounted to 81%; in [2] it was 23%; in [3], 74%; in assay [4], 73%; in assay [5], 6%; in assay [6], 29%. In addition, the inhibition of growth at 25 µg/mL was determined as 53% in assay [7], 3% in assay [8] and 100% in assay [9].
For the compound `Cc1cc(=O)n(C(=O)c2ccccc2I)o1`, the inhibition of growth at 25 µg/mL turned out to be 92% in assay [1]; 61% in assay [2]; 88% in assay [3]; 47% in assay [4]; 36% in assay [5]; 25% in assay [6]. For the same compound, the inhibition of growth at 25 µg/mL was 33% in [7], 57% in assay [8] and 100% in [9].
As for `Cc1cc(C)c(C(=O)n2oc(C)cc2=O)c(C)c1`, the inhibition of growth at 25 µg/mL in assay [1] was 90%; in assay [2], 4%; in assay [3], 11%; in assay [4] it was 10%; in assay [5] it was 10%; in [6], 22%. Besides, the inhibition of growth at 25 µg/mL in [7] amounted to 22%; in [8], 3%; in [9], 0%.
`Cc1cc(=O)n(C(=O)c2c(F)c(F)c(F)c(F)c2F)o1`: the inhibition of growth at 25 µg/mL in [1] came to 87%; in assay [2] it was 36%; in [3], 90%; in assay [4] it was 56%; in assay [5], 22%; in assay [6], 0%. For the same compound, the inhibition of growth at 25 µg/mL stood at 60% in assay [7], 5% in assay [8] and 100% in assay [9].
Turning to `Cc1cc(=O)n(C(=O)/C=C/c2ccccc2)o1`, the inhibition of growth at 25 µg/mL was 90% in [1]; 59% in assay [2]; 91% in assay [3]; 62% in assay [4]; 26% in [5]; 0% in assay [6]. Further, the inhibition of growth at 25 µg/mL worked out at 67% in assay [7], 92% in assay [8] and 100% in assay [9].
With `Cc1cc(=O)n(C(=O)/C=C/c2ccc(Cl)cc2)o1`, the inhibition of growth at 25 µg/mL worked out at 77% in assay [1]; 45% in assay [2]; 77% in assay [3]; 77% in assay [4]; 43% in [5]; 20% in assay [6]. Further, the values for the inhibition of growth at 25 µg/mL in [7], in assay [8] and in [9] were 54%, 66% and 100%, respectively.
With `Cc1cc(=O)n(C(=O)C#Cc2ccccc2)o1`, the inhibition of growth at 25 µg/mL was found to be 73% in assay [1]; 41% in assay [2]; 88% in assay [3]; 83% in assay [4]; 23% in [5]; 3% in [6]. Also, the inhibition of growth at 25 µg/mL in assay [7] was determined as 72%; in assay [8], 17%; in assay [9], 98%.
With `Cc1cc(=O)n(C(=O)C2(c3ccccc3)CC2(Cl)Cl)o1` (configuration not stated), the inhibition of growth at 25 µg/mL in assay [1] came out at 89%; in [2], 58%; in assay [3] it was 85%; in assay [4], 69%; in assay [5] it was 32%; in [6] it was 9%. The inhibition of growth at 25 µg/mL in assay [7] was 50%; in assay [8], 46%; in [9], 99%.
Regarding `Cc1cc(=O)n(C(=O)C2(C)C(C)(C)C2(Cl)Cl)o1` (configuration not stated), the inhibition of growth at 25 µg/mL came to 79% in assay [1]; 36% in [2]; 80% in [3]; 50% in assay [4]; 20% in assay [5]; 0% in assay [6]. For the same compound, the figures for the inhibition of growth at 25 µg/mL in assay [7], in [8] and in [9] were 31%, 24% and 87%, respectively.
With `Cc1cc(=O)n(C(=O)C2CCc3ccccc3C2)o1` (configuration not stated), the inhibition of growth at 25 µg/mL is 73% in assay [1]; 82% in [2]; 80% in assay [3]; 95% in assay [4]; 40% in [5]; 57% in assay [6]. The inhibition of growth at 25 µg/mL was determined as 64% in assay [7], 50% in assay [8] and 100% in [9].
Turning to `Cc1cc(=O)n(C(=O)/C=C/c2ccoc2)o1`, the inhibition of growth at 25 µg/mL turned out to be 96% in [1]; 68% in assay [2]; 91% in assay [3]; 53% in assay [4]; 44% in [5]; 72% in assay [6]. Further, the results for the inhibition of growth at 25 µg/mL in assay [7], in [8] and in assay [9] were 60%, 90% and 100%, respectively.
For `Cc1cc(=O)n(C(=O)/C=C/c2cccs2)o1`, the inhibition of growth at 25 µg/mL in assay [1] was 89%; in assay [2] it was 60%; in assay [3], 77%; in [4] it was 78%; in assay [5], 40%; in [6] it was 16%. For the same compound, the inhibition of growth at 25 µg/mL is 54% in [7], 75% in [8] and 100% in assay [9].
As to `Cc1cc(=O)n(C(=O)/C=C/c2ccsc2)o1`, the inhibition of growth at 25 µg/mL in assay [1] amounted to 97%; in assay [2], 69%; in [3], 90%; in assay [4] it was 61%; in assay [5] it was 32%; in assay [6], 45%. The inhibition of growth at 25 µg/mL amounted to 50% in assay [7], 100% in assay [8] and 100% in assay [9].
As for `Cc1cc(=O)n(C(=O)CCCCC(=O)n2oc(C)cc2=O)o1`, the inhibition of growth at 25 µg/mL in [1] stood at 91%; in assay [2] it was 61%; in assay [3] it was 93%; in [4], 52%; in assay [5], 27%; in assay [6] it was 56%. The inhibition of growth at 25 µg/mL in assay [7] is 81%; in [8], 18%; in assay [9], 100%.
